From ChEMBL document CHEMBL5523756, “Molecular Transformers: Adaptive Multitarget Ligands for Esterase-Induced Transition from Analgesics to Anesthetics” (J Med Chem, 2024)
Active and inactive are the calls of the source.

Key:
[1] = Toxicity in ICR mouse assessed as survival rate at 1.5 times ED50 administered intravenously; settings: in vivo, route iv
[2] = test system: Mus musculus; assay: Analgesic effect in ICR mouse model of CFA-induced chronic inflammatory pain assessed as increase in paw withdrawal threshold at 0.07 mmol/kg, ip measured upto 90 mins by Von Frey test; assay type: functional, organism-based
[3] = molecular target: T1, Sodium channel protein type 10 subunit alpha (Homo sapiens, UniProt Q9Y5Y9); assay: Inhibition of Nav1.8 channel (unknown origin) at -120 mV conditioning pulse by voltage clamp electrophysiological recording
T1 sequence (Q9Y5Y9 whole entry, looked up): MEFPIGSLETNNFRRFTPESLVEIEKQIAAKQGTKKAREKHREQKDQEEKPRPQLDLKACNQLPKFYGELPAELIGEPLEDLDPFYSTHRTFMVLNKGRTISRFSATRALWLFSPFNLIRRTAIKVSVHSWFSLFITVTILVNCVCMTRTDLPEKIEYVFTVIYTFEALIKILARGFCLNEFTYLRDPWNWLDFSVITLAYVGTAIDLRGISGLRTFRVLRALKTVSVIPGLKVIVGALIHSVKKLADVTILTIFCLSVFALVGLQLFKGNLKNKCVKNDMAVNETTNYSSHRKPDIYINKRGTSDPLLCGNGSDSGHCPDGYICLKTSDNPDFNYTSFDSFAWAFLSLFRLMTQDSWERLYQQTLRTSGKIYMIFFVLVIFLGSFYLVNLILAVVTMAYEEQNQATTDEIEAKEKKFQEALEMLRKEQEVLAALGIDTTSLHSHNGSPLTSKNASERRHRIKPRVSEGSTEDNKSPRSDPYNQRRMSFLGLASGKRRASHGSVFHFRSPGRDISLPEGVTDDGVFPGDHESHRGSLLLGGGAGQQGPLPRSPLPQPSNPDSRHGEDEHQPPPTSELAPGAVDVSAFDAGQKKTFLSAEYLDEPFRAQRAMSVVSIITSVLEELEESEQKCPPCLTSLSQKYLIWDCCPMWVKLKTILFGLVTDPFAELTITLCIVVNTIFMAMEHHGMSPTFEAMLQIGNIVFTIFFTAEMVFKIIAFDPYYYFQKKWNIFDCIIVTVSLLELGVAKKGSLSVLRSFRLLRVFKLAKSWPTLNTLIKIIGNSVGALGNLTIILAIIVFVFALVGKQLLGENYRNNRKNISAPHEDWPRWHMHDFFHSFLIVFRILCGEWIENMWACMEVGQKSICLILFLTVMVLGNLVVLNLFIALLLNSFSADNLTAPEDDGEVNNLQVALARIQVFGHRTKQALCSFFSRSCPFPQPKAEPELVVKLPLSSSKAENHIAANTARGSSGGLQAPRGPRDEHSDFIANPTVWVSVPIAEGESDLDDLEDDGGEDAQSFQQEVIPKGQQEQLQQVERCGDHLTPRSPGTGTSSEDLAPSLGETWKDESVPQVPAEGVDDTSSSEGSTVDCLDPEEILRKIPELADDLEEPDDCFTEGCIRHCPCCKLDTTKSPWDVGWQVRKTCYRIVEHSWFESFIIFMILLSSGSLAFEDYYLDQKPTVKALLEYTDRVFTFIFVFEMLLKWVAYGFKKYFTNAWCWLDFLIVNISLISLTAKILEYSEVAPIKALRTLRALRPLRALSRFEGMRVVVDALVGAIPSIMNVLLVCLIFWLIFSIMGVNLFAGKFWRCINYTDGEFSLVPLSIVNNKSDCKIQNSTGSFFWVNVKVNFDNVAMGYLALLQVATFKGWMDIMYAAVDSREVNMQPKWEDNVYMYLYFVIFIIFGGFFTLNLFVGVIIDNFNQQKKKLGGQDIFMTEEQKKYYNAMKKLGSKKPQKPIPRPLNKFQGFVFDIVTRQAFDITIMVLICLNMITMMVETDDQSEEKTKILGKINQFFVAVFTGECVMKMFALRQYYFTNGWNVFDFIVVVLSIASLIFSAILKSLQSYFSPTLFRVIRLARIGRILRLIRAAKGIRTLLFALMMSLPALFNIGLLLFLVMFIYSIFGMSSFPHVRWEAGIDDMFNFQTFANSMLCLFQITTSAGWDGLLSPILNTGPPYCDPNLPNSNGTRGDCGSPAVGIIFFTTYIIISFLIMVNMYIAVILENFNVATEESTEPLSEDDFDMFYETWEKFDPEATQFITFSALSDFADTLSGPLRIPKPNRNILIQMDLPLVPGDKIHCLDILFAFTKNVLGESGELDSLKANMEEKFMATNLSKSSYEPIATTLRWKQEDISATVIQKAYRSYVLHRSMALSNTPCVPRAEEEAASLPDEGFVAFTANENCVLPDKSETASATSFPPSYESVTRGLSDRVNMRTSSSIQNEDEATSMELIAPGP

[4] = test system: Mus musculus; assay: Anesthetic effect in iv dosed ICR mouse by up-and-down method; assay type: functional
[5] = molecular target: T1, Sodium channel protein type 10 subunit alpha; assay: Binding affinity to Nav1.8 (unknown origin) expressed in HEK293T cells assessed as retention time of compound at 1 mg/ml by cell membrane chromatography; assay type: cell membranes
[6] = Stability of compound assessed as porcine liver esterase mediated propofol release by measuring half life at 1 mg/ml by HPLC analysis; assay type: ADME, Sus scrofa; settings: pig, isolated protein
[7] = molecular target: GABA-A receptor; alpha-1/beta-2/gamma-2 (Homo sapiens) (UniProt P14867+P47870+P18507); assay: Agonist activity at alpha1beta2gamma2 GABA-A receptor (unknown origin) at 10 uM at -70 mV holding potential by electrophysiological recording; assay type: protein-complex assay; settings: filed as agonist
[8] = molecular target: T1, Sodium channel protein type 10 subunit alpha; assay: Binding affinity to Nav1.8 (unknown origin) expressed in HEK293T cells at 1 mg/ml by cell membrane chromatography; assay type: cell membranes

SMILES: CC(C)c1cccc(C(C)C)c1OC(=O)CN1CCCCC1
- survival [1]: 100%
- Activity [2]: Active

SMILES: Cc1nccn1Cc1ccc(C(=O)c2c(C(C)C)cccc2C(C)C)o1
- inhibition [3]: Active

SMILES: Cc1cc(COc2c(C(C)C)cccc2C(C)C)cc(C)c1CN
- inhibition [3]: Active

SMILES: CCN(CC)CC(=O)Oc1c(C(C)C)cccc1C(C)C.Cl
- survival [1]: 100%
- ED50 [4]: 77 µmol/kg
- Activity [2]: Active
- Retention time [5]: 11.4 min
- t1/2 [6]: 4.07 min

SMILES: CCCN(CCO)CCOC(=O)Oc1c(C(C)C)cccc1C(C)C.Cl
- t1/2 [6]: < 8.609 min

SMILES: CC(C)c1cccc(C(C)C)c1OC(=O)CCN1CCOCC1
- Retention time [5]: 0.9 min

SMILES: Cc1cc(F)ccc1Oc1cc(C(F)(F)F)ccc1C(=O)Nc1ccn(COP(=O)(O)O)c(=O)c1
- Retention time [5]: 2.6 min

SMILES: CC(C)c1cccc(C(C)C)c1Oc1ccc(C[C@@H](N)C(N)=O)cc1
- inhibition [3]: Active

SMILES: COc1ccc(CNc2c(C(C)C)cccc2C(C)C)cc1OCC(N)=O
- inhibition [3]: Active

SMILES: CC(C)c1cccc(C(C)C)c1OC(=O)CN1CCOCC1
- Retention time [5]: 0.5 min

SMILES: COCCN(CCOC)CCOC(=O)Oc1c(C(C)C)cccc1C(C)C.Cl
- t1/2 [6]: 6.925 min

SMILES: CC1CC(C)CN(CC(=O)Oc2c(C(C)C)cccc2C(C)C)C1 (configuration not stated)
- Retention time [5]: > 110 min

SMILES: CCN(CC)CCCOC(=O)Oc1c(C(C)C)cccc1C(C)C.Cl
- Retention time [5]: 37.1 min
- t1/2 [6]: < 8.609 min

SMILES: CC(C)c1cccc(C(C)C)c1OC(=O)OCCN1CCN(C(C)C)CC1.Cl
- t1/2 [6]: > 120 min

SMILES: CC(C)c1cccc(C(C)C)c1OC1CCN(c2ccc(C(=O)O)cc2)CC1
- inhibition [3]: Active

SMILES: CC1CN(CC(=O)Oc2c(C(C)C)cccc2C(C)C)CC(C)O1.Cl (configuration not stated)
- Retention time [5]: 0.5 min
- t1/2 [6]: 7.227 min

SMILES: COCCN(CCOC)CC(=O)Oc1c(C(C)C)cccc1C(C)C.Cl
- t1/2 [6]: 6.712 min

SMILES: CCN1CCN(CCC(=O)Oc2c(C(C)C)cccc2C(C)C)CC1.Cl
- t1/2 [6]: > 120 min

SMILES: CC(C)c1cccc(C(C)C)c1OC(=O)OCCN1CCSCC1.Cl
- t1/2 [6]: 4.03 min

SMILES: CC(C)c1cccc(C(C)C)c1OC(=O)CN1CCN(CCO)CC1.Cl
- t1/2 [6]: > 120 min

SMILES: CC(C)c1cccc(C(C)C)c1OC(=O)OCCN1CCN(CCO)CC1.Cl
- t1/2 [6]: 63.54 min

SMILES: CC1CN(CCCOC(=O)Oc2c(C(C)C)cccc2C(C)C)CC(C)O1 (configuration not stated)
- Retention time [5]: 12.4 min

SMILES: COc1cc(-c2cc(C(=O)O)n[nH]2)ccc1Oc1c(C(C)C)cccc1C(C)C
- inhibition [3]: Active

SMILES: CCN1CCN(CCOC(=O)Oc2c(C(C)C)cccc2C(C)C)CC1.Cl
- t1/2 [6]: 4.684 min

SMILES: CC(C)c1cccc(C(C)C)c1O
- Activity [2]: inactive
- Activity [7]: Active

SMILES: CC1CN(CCOC(=O)Oc2c(C(C)C)cccc2C(C)C)CC(C)O1 (configuration not stated)
- Retention time [5]: 11.8 min

SMILES: CC(C)c1cccc(C(C)C)c1OC(=O)CCN1CCN(C(C)C)CC1.Cl
- t1/2 [6]: > 120 min

SMILES: Cc1cc(C(=O)c2c(C(C)C)cccc2C(C)C)ccc1N1C(=O)C=CC1=O
- inhibition [3]: Active

SMILES: CC1CC(C)CN(CCOC(=O)Oc2c(C(C)C)cccc2C(C)C)C1.Cl (configuration not stated)
- Retention time [5]: > 110 min
- t1/2 [6]: 9.305 min

SMILES: CC(C)c1cccc(C(C)C)c1C(=O)c1ccc(N(C)CCS(=O)(=O)O)cc1
- Activity [2]: Active
- inhibition [3]: Active
- Activity [8]: Active

SMILES: CC1CN(CCC(=O)Oc2c(C(C)C)cccc2C(C)C)CC(C)O1.Cl (configuration not stated)
- Retention time [5]: 3.1 min
- t1/2 [6]: 1.429 min

SMILES: CC(C)c1cccc(C(C)C)c1OC(=O)CN1CCSCC1.Cl
- t1/2 [6]: 22.97 min

SMILES: CC(C)c1cccc(C(C)C)c1OC(=O)CN1CCS(=O)(=O)CC1.Cl
- t1/2 [6]: > 30 min

SMILES: CC(C)c1cccc(C(C)C)c1C(=O)c1ccc2c(CN(C)C)c[nH]c2c1
- inhibition [3]: Active

SMILES: CC(C)c1cccc(C(C)C)c1C(=O)CSc1cccc[n+]1[O-]
- inhibition [3]: Active

SMILES: CCN1CCN(CC(=O)Oc2c(C(C)C)cccc2C(C)C)CC1.Cl
- t1/2 [6]: > 120 min

SMILES: CCN(CC)CCC(=O)Oc1c(C(C)C)cccc1C(C)C.Cl
- survival [1]: 100%
- ED50 [4]: 64 µmol/kg
- Activity [2]: Active
- Retention time [5]: 18.5 min
- t1/2 [6]: 3.288 min

SMILES: CC(C)c1cccc(C(C)C)c1OC(=O)CN1CCN(C(C)C)CC1.Cl
- t1/2 [6]: > 120 min

SMILES: CC1CC(C)CN(CCCOC(=O)Oc2c(C(C)C)cccc2C(C)C)C1.Cl (configuration not stated)
- t1/2 [6]: 3.428 min

SMILES: CC(C)c1cccc(C(C)C)c1OC(=O)CN1CCOCC1C (configuration not stated)
- Retention time [5]: 0.8 min

SMILES: CC(C)c1cccc(C(C)C)c1OC(=O)OCCN1CCCCC1
- Retention time [5]: 1 min
